# Source: publication PMC6438784 (Saudi Pharmaceutical Journal : SPJ, 2019)
# Read-outs that look alike come from different tables or passages of the source.
# Legend:
# [1] = rats; ref Kapetanovic et al., 2011; cited from earlier work
# [2] = biological target: T1, CYP2C8 (Homo sapiens, UniProt P10632); assay: CYP2C8 inhibition in pooled HLM, pioglitazone to hydroxypioglitazone; assay type: in vitro ADME
# T1 sequence (P10632 1-490): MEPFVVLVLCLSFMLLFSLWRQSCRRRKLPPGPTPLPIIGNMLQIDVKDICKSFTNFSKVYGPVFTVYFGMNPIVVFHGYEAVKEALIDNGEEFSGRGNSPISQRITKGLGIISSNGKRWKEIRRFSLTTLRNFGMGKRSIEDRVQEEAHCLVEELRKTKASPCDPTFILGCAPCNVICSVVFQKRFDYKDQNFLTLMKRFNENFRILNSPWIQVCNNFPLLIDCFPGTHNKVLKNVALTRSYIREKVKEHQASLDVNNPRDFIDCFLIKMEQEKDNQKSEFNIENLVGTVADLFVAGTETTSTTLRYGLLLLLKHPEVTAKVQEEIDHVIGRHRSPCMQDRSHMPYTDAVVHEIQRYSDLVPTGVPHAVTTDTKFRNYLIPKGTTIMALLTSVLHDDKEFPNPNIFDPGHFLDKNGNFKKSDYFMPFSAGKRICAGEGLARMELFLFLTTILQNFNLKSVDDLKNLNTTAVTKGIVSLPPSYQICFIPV
# [3] = biological target: T2, UGT1A9 (Homo sapiens, UniProt O60656); assay: UGT1A9 inhibition in HLM, mycophenolic acid glucuronidation; assay type: in vitro ADME
# T2 sequence (O60656 26-530): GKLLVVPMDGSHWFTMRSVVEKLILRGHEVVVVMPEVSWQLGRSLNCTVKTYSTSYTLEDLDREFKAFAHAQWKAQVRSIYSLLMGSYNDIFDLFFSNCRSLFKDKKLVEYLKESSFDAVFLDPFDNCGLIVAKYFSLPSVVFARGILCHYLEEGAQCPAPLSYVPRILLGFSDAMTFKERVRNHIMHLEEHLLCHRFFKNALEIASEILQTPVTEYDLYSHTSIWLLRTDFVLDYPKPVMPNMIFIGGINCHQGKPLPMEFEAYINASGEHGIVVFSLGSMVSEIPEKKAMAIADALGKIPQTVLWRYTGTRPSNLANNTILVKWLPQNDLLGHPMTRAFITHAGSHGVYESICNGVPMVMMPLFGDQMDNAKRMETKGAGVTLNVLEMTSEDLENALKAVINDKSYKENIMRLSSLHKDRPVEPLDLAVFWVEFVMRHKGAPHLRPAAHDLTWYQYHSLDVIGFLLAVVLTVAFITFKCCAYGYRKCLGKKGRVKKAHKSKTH
# [4] = biological target: T3, UGT1A1 (Homo sapiens, UniProt P22309); assay: UGT1A1 inhibition in HLM, β-estradiol glucuronidation; assay type: in vitro ADME
# T3 sequence (P22309 26-533): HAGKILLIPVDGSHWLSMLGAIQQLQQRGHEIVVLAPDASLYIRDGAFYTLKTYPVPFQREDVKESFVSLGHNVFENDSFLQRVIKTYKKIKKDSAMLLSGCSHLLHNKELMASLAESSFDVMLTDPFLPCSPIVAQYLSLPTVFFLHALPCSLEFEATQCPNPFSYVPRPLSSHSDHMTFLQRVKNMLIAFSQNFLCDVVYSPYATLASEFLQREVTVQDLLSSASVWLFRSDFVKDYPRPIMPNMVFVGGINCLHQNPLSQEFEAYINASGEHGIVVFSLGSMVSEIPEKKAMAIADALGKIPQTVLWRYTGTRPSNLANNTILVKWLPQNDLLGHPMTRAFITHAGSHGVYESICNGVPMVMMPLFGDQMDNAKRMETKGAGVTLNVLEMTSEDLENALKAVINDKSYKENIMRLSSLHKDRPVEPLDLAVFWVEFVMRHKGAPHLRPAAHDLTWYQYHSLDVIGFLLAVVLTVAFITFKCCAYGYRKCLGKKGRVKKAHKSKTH
# [5] = biological target: T4, UGT1A6 (Homo sapiens, UniProt P19224); assay: UGT1A6 inhibition in HLM, serotonin glucuronidation; assay type: in vitro ADME; conditions: for IC50: HLM
# T4 sequence (P19224 27-532): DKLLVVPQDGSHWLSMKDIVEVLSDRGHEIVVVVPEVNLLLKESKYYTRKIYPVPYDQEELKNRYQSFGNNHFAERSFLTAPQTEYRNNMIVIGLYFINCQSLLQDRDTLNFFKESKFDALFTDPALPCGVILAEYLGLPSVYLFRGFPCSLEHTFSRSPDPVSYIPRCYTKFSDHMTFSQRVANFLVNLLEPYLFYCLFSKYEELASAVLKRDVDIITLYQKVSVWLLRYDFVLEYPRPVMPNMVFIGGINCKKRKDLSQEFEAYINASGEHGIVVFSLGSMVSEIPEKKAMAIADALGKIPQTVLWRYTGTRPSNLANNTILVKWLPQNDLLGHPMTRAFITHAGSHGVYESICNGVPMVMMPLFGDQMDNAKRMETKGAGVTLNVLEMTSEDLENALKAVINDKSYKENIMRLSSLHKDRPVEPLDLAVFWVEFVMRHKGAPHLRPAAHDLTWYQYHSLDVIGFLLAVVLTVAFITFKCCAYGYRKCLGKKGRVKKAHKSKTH
# [6] = ref Riche et al., 2013, cited from earlier work
# [7] = system: UGT1A8/10; assay: UGT1A8/10 inhibition in HIM, mycophenolic acid glucuronidation; assay type: in vitro ADME, human
# [8] = biological target: T1, CYP2C8; assay: CYP2C8 inhibition in pooled HLM, amodiaquine to desethylamodiaquine; assay type: in vitro ADME; conditions: for IC50: amodiaquine
# [9] = rats, ref Yeo et al., 2013, cited from earlier work
# [10] = system: UGT1A6; conditions: UGT1A6 inhibition; ref Sridar et al., 2004; cited from earlier work
# [11] = initial screening, RDI 250 mg / rough IC50
smiles,measurement,setting,value
Oc1ccc(/C=C/c2cc(O)cc(O)c2)cc1 [resveratrol],Bioavailability,[1],20%
COc1cc(/C=C/c2ccc(O)cc2)cc(OC)c1 [pterostilbene],IC50,[2],17.9 ± 2.2 µM
same,IC50,[3],> 100 µM
same,inhibition at 30 min,"[3]; human, human liver microsomes, pH 7.4, probe mycophenolic acid (240 μM)",< 50%
same,V/D index,[3]; [11],3.89 L/dose
same,IC50,"[4]; Rough IC50, initial screening, HLM, β-estradiol",> 500 µM
same,inhibition at 30 min,"[4]; human, human liver microsomes, pH 7.4, probe β-estradiol (25 μM)",< 50%
same,V/D index,[4]; [11],<2 L/dose
same,IC50,"[5]; Precise IC50, confirmatory experiment, serotonin, mean ± SE",15 µM
same,IC50,"[5]; Rough IC50, initial screening, serotonin glucuronide formation, mean ± standard error",26.7 ± 40.7 µM
same,V/D index,[5]; [11],36.50 L/dose
same,Effect on blood pressure,[6]; 250 mg daily dose,reduction in blood pressure
same,Safety of long term use,"[6]; humans, 250 mg/day",safe
same,IC50 at 30 min,"[7]; human, human intestinal microsomes, pH 7.4, probe mycophenolic acid (70 μM)",92.7 ± 18.4 µM
same,VDI,[7]; initial screening,10.5 L
same,V/D index,[7]; [11],10.53 L/dose
same,IC50,"[8]; Precise IC50, confirmatory experiment, HLM, mean ± SE",3.12 µM
same,IC50,"[8]; Rough IC50, initial screening, pooled HLM, desethylamodiaquine formation, mean ± standard error",26.9 ± 5.6 µM
same,V/D index,[8]; [11],36.30 L/dose
same,Decrease of bioavailability by fasting,[9]; fasting,~55%
same,Clearance,[9]; intravenous dose of 2.5 mg/kg,rapid
same,Bioavailability,[9]; oral aqueous solution,15%
COc1cc(C2Oc3cc([C@H]4Oc5cc(O)cc(O)c5C(=O)[C@@H]4O)ccc3OC2CO)ccc1O (some centres unmarked) [Silybin],IC50,[10],28 µM
